Results as given in US20050009840A1 (SUGEN, INC., priority 2003, published 2005).

The molecules below were run against T1, HGFR (Homo sapiens, UniProt P08581) (assay: HGFR continuous-coupled spectrophotometric assay). Conditions: at 1 pM; Table 6, library procedure 41; read-out: % Inhibition (percent c-MET inhibition).
T1 construct: purchased Upstate 14-526
Type: biochemical

T1 sequence (P08581 974-1390 limits assumed): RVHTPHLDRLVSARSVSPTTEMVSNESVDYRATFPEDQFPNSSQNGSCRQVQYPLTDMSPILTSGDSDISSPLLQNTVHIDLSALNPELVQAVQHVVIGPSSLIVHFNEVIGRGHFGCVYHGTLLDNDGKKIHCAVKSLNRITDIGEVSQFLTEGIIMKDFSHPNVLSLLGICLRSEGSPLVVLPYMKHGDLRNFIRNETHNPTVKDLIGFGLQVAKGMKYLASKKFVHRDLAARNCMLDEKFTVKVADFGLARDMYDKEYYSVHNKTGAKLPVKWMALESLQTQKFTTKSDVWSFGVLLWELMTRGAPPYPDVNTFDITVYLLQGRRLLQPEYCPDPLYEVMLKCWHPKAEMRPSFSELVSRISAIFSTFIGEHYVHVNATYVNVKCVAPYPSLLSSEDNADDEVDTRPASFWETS

SMILES | inhibition at 1 pM [%]
Cc1ccc(N2CCN(CCCCNC(=O)c3cnc(N)c(OCc4c(Cl)cccc4Cl)c3)CC2)cc1 [Example L-268] | 15
Nc1ncc(C(=O)N2CCS(=O)(=O)CC2)cc1OCc1c(Cl)cccc1Cl [Example L-269] | 10
C[C@@H]1CCC[C@H](C)N1CCNC(=O)c1cnc(N)c(OCc2c(Cl)cccc2Cl)c1 [Example L-270] | 2
Nc1ncc(C(=O)N[C@@H]2CCC[C@H]2OCc2ccccc2)cc1OCc1c(Cl)cccc1Cl [Example L-271] | 16
Nc1ncc(C(=O)NC[C@]2(O)CC[C@H](c3ccccc3)CC2)cc1OCc1c(Cl)cccc1Cl [Example L-272] | 15
Nc1ncc(C(=O)NCCc2cccc(O)c2)cc1OCc1c(Cl)cccc1Cl [Example L-273] | 17
N#CCCN1CCN(C(=O)c2cnc(N)c(OCc3c(Cl)cccc3Cl)c2)CC1 [Example L-274] | 19
Nc1ncc(C(=O)NCc2cc3cc[nH]c3cn2)cc1OCc1c(Cl)cccc1Cl [Example L-275] | 28
Nc1ncc(C(=O)NCC(O)CN2CCC(Cc3ccccc3)CC2)cc1OCc1c(Cl)cccc1Cl [Example L-276] | 32
Nc1ncc(C(=O)N2CCCN(Cc3ccc(F)cc3)CC2)cc1OCc1c(Cl)cccc1Cl [Example L-277] | 26
Cc1ccc(F)c(CNC(=O)c2cnc(N)c(OCc3c(Cl)cccc3Cl)c2)c1F [Example L-278] | 31
Nc1ncc(C(=O)NCc2c(F)cccc2F)cc1OCc1c(Cl)cccc1Cl [Example L-279] | 32
Nc1ncc(C(=O)N2CCN(CC(=O)Nc3ccccn3)CC2)cc1OCc1c(Cl)cccc1Cl [Example L-280] | 56
Nc1ncc(C(=O)N2CCN(Cc3cccc4ccccc34)CC2)cc1OCc1c(Cl)cccc1Cl [Example L-281] | 26
CCS(=O)(=O)N1CCN(C(=O)c2cnc(N)c(OCc3c(Cl)cccc3Cl)c2)CC1 [Example L-282] | 22
Nc1ncc(C(=O)N2CCC(N3CCCCC3=O)CC2)cc1OCc1c(Cl)cccc1Cl [Example L-283] | 26
Nc1ncc(C(=O)N2CCC3(CCNC3=O)CC2)cc1OCc1c(Cl)cccc1Cl [Example L-284] | 27
Nc1ncc(C(=O)N2CCNC(=O)CC2)cc1OCc1c(Cl)cccc1Cl [Example L-285] | 31
Nc1ncc(C(=O)N2CCCC(C(=O)N3CCCC3)C2)cc1OCc1c(Cl)cccc1Cl [Example L-286] | 47
Nc1ncc(C(=O)N2CCCC(C(=O)N3CCOCC3)C2)cc1OCc1c(Cl)cccc1Cl [Example L-287] | 21
COCCNC(=O)C1CCCN(C(=O)c2cnc(N)c(OCc3c(Cl)cccc3Cl)c2)C1 [Example L-288] | 20
CC(C)(O)c1ccc(CNC(=O)c2cnc(N)c(OCc3c(Cl)cccc3Cl)c2)cc1 [Example L-289] | 24
Nc1ncc(C(=O)N2CCCC2c2ccncc2)cc1OCc1c(Cl)cccc1Cl [Example L-290] | 19
Nc1ncc(C(=O)NCCc2nc3ccccc3s2)cc1OCc1c(Cl)cccc1Cl [Example L-291] | 26
Nc1ncc(C(=O)NCC2=CSC3=NCCN23)cc1OCc1c(Cl)cccc1Cl [Example L-292] | 99

SMILES | inhibition at 1 pM [%]
Nc1ncc(C(=O)NC2CCCNC2=O)cc1OCc1c(Cl)cccc1Cl [Example L-293] | 16
Cc1cc2cc(CNC(=O)c3cnc(N)c(OCc4c(Cl)cccc4Cl)c3)ccc2[nH]1 [Example L-294] | 20
CN(C)C(CNC(=O)c1cnc(N)c(OCc2c(Cl)cccc2Cl)c1)c1cccnc1 [Example L-295] | 18
CS(=O)(=O)C1CCN(C(=O)c2cnc(N)c(OCc3c(Cl)cccc3Cl)c2)C1 [Example L-296] | 23
CN(CCS(C)(=O)=O)C(=O)c1cnc(N)c(OCc2c(Cl)cccc2Cl)c1 [Example L-297] | 26
Nc1ncc(C(=O)NCCC2CCOCC2)cc1OCc1c(Cl)cccc1Cl [Example L-298] | 31
CS(=O)(=O)CCN1CCN(C(=O)c2cnc(N)c(OCc3c(Cl)cccc3Cl)c2)CC1 [Example L-299] | 25
Nc1ncc(C(=O)NC(CO)c2cccnc2)cc1OCc1c(Cl)cccc1Cl [Example L-300] | 22
Nc1ncc(C(=O)N2CCN(CC(=O)N3CCCCC3)CC2)cc1OCc1c(Cl)cccc1Cl [Example L-301] | 24
Nc1ncc(C(=O)N2CCC(Cc3ccc(F)cc3)CC2)cc1OCc1c(Cl)cccc1Cl [Example L-302] | 41
Nc1ncc(C(=O)NCc2ncccc2O)cc1OCc1c(Cl)cccc1Cl [Example L-303] | 24
CCCCOc1ccc(CNC(=O)c2cnc(N)c(OCc3c(Cl)cccc3Cl)c2)cc1 [Example L-304] | 18
Nc1ncc(C(=O)NCc2ccc(OC(F)F)cc2)cc1OCc1c(Cl)cccc1Cl [Example L-305] | 26
COc1ccc(C(CCO)NC(=O)c2cnc(N)c(OCc3c(Cl)cccc3Cl)c2)cc1 [Example L-306] | 22
Nc1ncc(C(=O)N2CCNC(=O)C2)cc1OCc1c(Cl)cccc1Cl [Example L-307] | 22
Nc1ncc(C(=O)NCc2c(F)cccc2C(F)(F)F)cc1OCc1c(Cl)cccc1Cl [Example L-308] | 33
Nc1ncc(C(=O)N2CCCC(F)(F)C2)cc1OCc1c(Cl)cccc1Cl [Example L-309] | 16
Nc1ncc(C(=O)NCc2ccc[nH]c2=O)cc1OCc1c(Cl)cccc1Cl [Example L-310] | 16
Cc1ccc2c(c1)C(NC(=O)c1cnc(N)c(OCc3c(Cl)cccc3Cl)c1)CCO2 [Example L-311] | 17
CCN1CCCC(NC(=O)c2cnc(N)c(OCc3c(Cl)cccc3Cl)c2)C1 [Example L-312] | 19
Nc1ncc(C(=O)N2CCC(COCc3ccccc3F)CC2)cc1OCc1c(Cl)cccc1Cl [Example L-313] | 10
Nc1ncc(C(=O)NCCC2CCC(=O)N2CCc2ccc(O)cc2)cc1OCc1c(Cl)cccc1Cl [Example L-314] | 16
Nc1ncc(C(=O)N2CCC(Cc3cnccn3)CC2)cc1OCc1c(Cl)cccc1Cl [Example L-315] | 72
Nc1ncc(C(=O)N2CCC(Cc3cccc(CO)c3)CC2)cc1OCc1c(Cl)cccc1Cl [Example L-316] | 11
NC(=O)c1ccc(CC2CCN(C(=O)c3cnc(N)c(OCc4c(Cl)cccc4Cl)c3)CC2)cc1 [Example L-317] | 12

SMILES | inhibition at 1 pM [%]
Nc1ncc(C(=O)N2CCC3(CC2)CC(N2CCNC(=O)C2)CO3)cc1OCc1c(Cl)cccc1Cl [Example L-318] | 17
CCN(CC)CC1(O)CCN(C(=O)c2cnc(N)c(OCc3c(Cl)cccc3Cl)c2)CC1 [Example L-319] | 71
Nc1ncc(C(=O)N2CCC3(CC2)CC(N2CCC(O)CC2)CO3)cc1OCc1c(Cl)cccc1Cl [Example L-320] | 28
CN(CCC1CCC(=O)N1CC(F)(F)F)C(=O)c1cnc(N)c(OCc2c(Cl)cccc2Cl)c1 [Example L-321] | 25
Nc1ncc(C(=O)N2CCC(O)(CCc3ccncc3)CC2)cc1OCc1c(Cl)cccc1Cl [Example L-322] | 25
Nc1ncc(C(=O)NCc2noc(C(=O)N3CCC(CO)CC3)n2)cc1OCc1c(Cl)cccc1Cl [Example L-323] | 26
Nc1ncc(C(=O)N2CCCC(Cc3ncccn3)C2)cc1OCc1c(Cl)cccc1Cl [Example L-324] | 25
Nc1ncc(C(=O)N2CCC3(CC2)CC3C(=O)N2CCCCC2)cc1OCc1c(Cl)cccc1Cl [Example L-325] | 26
Cc1noc([C@H]2CC[C@H](CNC(=O)c3cnc(N)c(OCc4c(Cl)cccc4Cl)c3)CC2)n1 [Example L-326] | 3
Nc1ncc(C(=O)NCc2noc(C(=O)N3CC[C@H](O)C3)n2)cc1OCc1c(Cl)cccc1Cl [Example L-327] | 26
Nc1ncc(C(=O)N2CCc3nnc(CCN4CCOCC4)n3CC2)cc1OCc1c(Cl)cccc1Cl [Example L-328] | 27
C=C(Cl)/C(=C/O)COc1cc(C(=O)NC2COC3(CCN(Cc4[nH]cnc4C)CC3)C2)cnc1N [Example L-329] | 30
CCC(CC)CN1CCC2(CC1)CC(NC(=O)c1cnc(N)c(OCc3c(Cl)cccc3Cl)c1)CO2 [Example L-330] | 74
COCC1CN(CC(N)=O)CCN(C(=O)c2cnc(N)c(OCc3c(Cl)cccc3Cl)c2)C1 [Example L-331] | 23
Nc1ncc(C(=O)NC2COC3(CCN(c4ncccn4)CC3)C2)cc1OCc1c(Cl)cccc1Cl [Example L-332] | 21
Cc1nc(CCNC(=O)c2cnc(N)c(OCc3c(Cl)cccc3Cl)c2)cs1 [Example L-333] | 23
CCCN(CCO)C1CCCN(C(=O)c2cnc(N)c(OCc3c(Cl)cccc3Cl)c2)CC1 [Example L-334] | 17
Nc1ncc(C(=O)N2CCCC(N3CCOCC3)CC2)cc1OCc1c(Cl)cccc1Cl [Example L-335] | 18
Nc1ncc(C(=O)NC2COC3(CCN(Cc4ccncc4)CC3)C2)cc1OCc1c(Cl)cccc1Cl [Example L-336] | 20
Nc1ncc(C(=O)N2CCC(O)(CN3CCCC3=O)C2)cc1OCc1c(Cl)cccc1Cl [Example L-337] | 20
CC(C)CCNC(=O)C1CC12CCN(C(=O)c1cnc(N)c(OCc3c(Cl)cccc3Cl)c1)CC2 [Example L-338] | 21
CN(CCc1ccccn1)CC1(O)CCN(C(=O)c2cnc(N)c(OCc3c(Cl)cccc3Cl)c2)C1 [Example L-339] | 18
Cc1cc(CCC2CC3(CCN(C(=O)c4cnc(N)c(OCc5c(Cl)cccc5Cl)c4)CC3)CO2)no1 [Example L-340] | 19
Nc1ncc(C(=O)N2CCCC(N3CCC(CO)CC3)CC2)cc1OCc1c(Cl)cccc1Cl [Example L-341] | 20
Nc1ncc(C(=O)N2CCCC(O)(COc3cccc(F)c3)C2)cc1OCc1c(Cl)cccc1Cl [Example L-342] | 36
